Experimental data published in patent US8633315B2, “Substituted hydroxyethyl amine compounds as beta-secretase modulators and methods of use” (Amgen Inc., priority 2007, dated 2014).

Legend:
[1] = Microsomal stability assay, rat liver microsomes; assay type: in vitro ADME
Text: (§1) Microsomal Stability Assay

[2] = Microsomal stability assay, human liver microsomes; assay type: in vitro ADME
Text: as §1

BACE1 = BACE1 (Homo sapiens, UniProt P56817); assay: In vitro enzymatic BACE FRET (fluorescence resonance energy transfer) assay; assay type: biochemical; conditions: read-out: BACE 1 FRET assay
BACE1, sequence (P56817 46-501, species assumed): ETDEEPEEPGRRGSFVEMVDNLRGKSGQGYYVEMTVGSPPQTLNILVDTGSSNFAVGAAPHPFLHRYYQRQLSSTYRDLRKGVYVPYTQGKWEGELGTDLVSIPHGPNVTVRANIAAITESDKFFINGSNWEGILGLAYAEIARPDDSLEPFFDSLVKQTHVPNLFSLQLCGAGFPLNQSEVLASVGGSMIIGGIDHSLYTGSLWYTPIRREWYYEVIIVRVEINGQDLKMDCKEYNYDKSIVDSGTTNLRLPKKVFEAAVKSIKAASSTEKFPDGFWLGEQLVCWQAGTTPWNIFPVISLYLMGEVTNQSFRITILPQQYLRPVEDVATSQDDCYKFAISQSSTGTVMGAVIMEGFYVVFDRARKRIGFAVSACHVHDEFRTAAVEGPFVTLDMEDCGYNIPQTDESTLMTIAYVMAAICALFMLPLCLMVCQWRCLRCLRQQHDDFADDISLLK
Outline: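 Fluorescence (ex 488 nm, […]) was read after Tris addition raised pH to neutral, ending a one-hour incubation. Reaction started with 50 nM fluorophore/quencher peptide substrate in pH 4.2 acetate (0.05 M) containing 100 uM genapol and 10% DMSO final.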

CYP3A4 (CYP3A) = CYP3A4 (CYP3A) (Homo sapiens, UniProt P08684); assay: CYP3A inhibition assay (midazolam, pooled human liver microsomes); assay type: in vitro ADME; conditions: human, pooled human liver microsomes, pH 7.4, probe midazolam (printed as about […]); read-out: 3A4 IC50
CYP3A4 (CYP3A), sequence (P08684 2-503): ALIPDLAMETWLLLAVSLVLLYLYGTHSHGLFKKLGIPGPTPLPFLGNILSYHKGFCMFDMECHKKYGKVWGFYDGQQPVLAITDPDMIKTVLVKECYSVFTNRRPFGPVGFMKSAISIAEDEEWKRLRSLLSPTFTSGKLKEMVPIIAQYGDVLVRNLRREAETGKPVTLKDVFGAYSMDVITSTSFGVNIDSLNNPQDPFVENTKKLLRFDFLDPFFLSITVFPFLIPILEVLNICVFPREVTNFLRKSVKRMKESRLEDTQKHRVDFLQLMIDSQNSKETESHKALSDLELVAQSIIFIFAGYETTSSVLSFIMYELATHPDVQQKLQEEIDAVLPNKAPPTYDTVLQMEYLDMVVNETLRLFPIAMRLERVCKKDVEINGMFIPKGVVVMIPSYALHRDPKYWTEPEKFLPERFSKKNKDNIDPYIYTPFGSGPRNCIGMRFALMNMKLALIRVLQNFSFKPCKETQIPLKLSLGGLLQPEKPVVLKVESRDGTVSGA

[3] = tested on: Cells stably expressing Amyloid Precursor Protein (APP); assay: In vitro BACE cell-based assay (HEK cell assay): Aβ40 in conditioned medium by sandwich ELISA; conditions: Homo sapiens, HEK293
Outline: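 Secreted Aβ40 was quantified by time-resolved fluorescence sandwich ELISA, capturing with pAb40 for 3 h at 4 °C and detecting with biotinylated 6E10 for 2 h at 4 °C. Media came from APP-expressing cells exposed 24 h to compounds (10-point series from 100 or 10 μM, 0.1% DMSO); IC50 derived from percent of control.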

Row | Compound | RLM [1] | HLM [2] | IC50 (BACE1) | IC50 at 10 min (CYP3A4 (CYP3A)) | IC50 [3]
1 | C=CC[C@H](NC(=O)COC)[C@H](O)CN[C@H]1CC2(CCC2)Oc2c(-c3nccs3)cc(CC(C)C)cc21 [compound 212, N-((1S)-1-((1R)-1-hydroxy-2-(((4S)-6-(2-methylpropyl)-8-(1,3-thiazol-2-yl)-3,4-dihydrospiro[chromene-2,1′-cyclobutan]-4-yl)amino)ethyl)-3-buten-1-yl)-2-methoxyacetamide] | 399 µL/min/mg | 775 µL/min/mg | 92 nM | 700 nM | 262 nM
2 | CC[C@H](NC(C)=O)[C@H](O)CN[C@H]1CC2(CCC2)Oc2ncc(CC(C)(C)C)cc21 [compound 213] | 25 µL/min/mg | 36 µL/min/mg | 60 nM | 27000 nM | 339 nM
3 | C=CC[C@H](NC(=O)COC)[C@H](O)CN[C@H]1CC2(CCC2)Oc2c(Br)cc(CC(C)(C)C)cc21 [compound 214] | 247 µL/min/mg | 492 µL/min/mg | 44 nM | 900 nM | 2170 nM
4 | C=CC[C@H](NC(=O)COC)[C@H](O)CN[C@H]1CC2(CCC2)Oc2c(-c3nccs3)cc(CC(C)(C)C)cc21 [compound 215] | 551 µL/min/mg | 736 µL/min/mg | 57 nM | 1000 nM | 838 nM
5 | C=CC[C@H](NC(=O)COC)[C@H](O)CN[C@H]1CC2(CCC2)Oc2c(-c3cncs3)cc(CC(C)(C)C)cc21 [compound 217] | 477 µL/min/mg | 551 µL/min/mg | 20 nM | 200 nM | 920 nM
6 | C=CC[C@H](NC(=O)COC)[C@H](O)CN[C@H]1CC2(CCC2)Oc2c(-c3cnc[nH]3)cc(CC(C)(C)C)cc21 [compound 218, N-((1S)-1-((1R)-2-(((4S)-6-(2,2-dimethylpropyl)-8-(1H-imidazol-5-yl)-3,4-dihydrospiro[chromene-2,1′-cyclobutan]-4-yl)amino)-1-hydroxyethyl)-3-buten-1-yl)-2-methoxyacetamide] | 185 µL/min/mg | 215 µL/min/mg | 179 nM | 300 nM | 71 nM
7 | C=CC[C@H](NC(=O)COC)[C@H](O)CN[C@H]1CC2(CCC2)Oc2c(-c3ccncc3)cc(CC(C)(C)C)cc21 [compound 219] | 360 µL/min/mg | 106 µL/min/mg | 170 nM | 100 nM | 249 nM
8 | C=CC[C@H](NC(=O)COC)[C@H](O)CN[C@H]1CC2(CCC2)Oc2c(-c3cccnc3)cc(CC(C)(C)C)cc21 [compound 220] | 369 µL/min/mg | 569 µL/min/mg | 107 nM | 300 nM | 125 nM
9 | C#CC[C@H](NC(=O)[C@@H](C)OC)[C@H](O)CN[C@H]1CC2(CCC2)Oc2c1cc(CC(C)(C)C)nc2NC [compound 222] | 156 µL/min/mg | 165 µL/min/mg | 1220 nM | 1400 nM | 891 nM
10 | CCC[C@H](NC(=O)[C@@H](C)OC)[C@H](O)CN[C@H]1CC2(CCC2)Oc2c1cc(CC(C)(C)C)nc2Cl [compound 223, (2R)-N-((1S)-1-((1R)-2-(((4′S)-8′-chloro-6′-(2,2-dimethylpropyl)-3′,4′-dihydrospiro[cyclobutane-1,2′-pyrano[2,3-c]pyridin]-4′-yl)amino)-1-hydroxyethyl)butyl)-2-(methyloxy)propanamide] | 249 µL/min/mg | 515 µL/min/mg | 371 nM | 3500 nM | 10000 nM
11 | COC[C@H](NC(C)=O)[C@H](O)CN[C@H]1CC2(CCC2)Oc2ncc(CC(C)(C)C)cc21 [compound 225] | 14 µL/min/mg | 40 µL/min/mg | 480 nM | 27000 nM | 462 nM
12 | CCC[C@H](NC(=O)COC)[C@H](O)CN[C@H]1CC2(CCC2)Oc2c1cc(CC(C)(C)C)nc2NC [compound 226] | 259 µL/min/mg | 161 µL/min/mg | 617 nM | 5000 nM | 83 nM
13 | CCC[C@H](NC(=O)[C@@H](C)OC)[C@H](O)CN[C@H]1CC2(CCC2)Oc2c1cc(CC(C)(C)C)nc2NC [compound 227] | 212 µL/min/mg | 119 µL/min/mg | 903 nM | 1500 nM | 163 nM
14 | CCC[C@H](NC(=O)[C@H]1CCCO1)[C@H](O)CN[C@H]1CC2(CCC2)Oc2c1cc(CC(C)(C)C)nc2NC [compound 228, (2R)-N-((1S)-1-((1R)-2-(((4′S)-6′-(2,2-dimethylpropyl)-8′-(methylamino)-3′,4′-dihydrospiro[cyclobutane-1,2′-pyrano[2,3-c]pyridin]-4′-yl)amino)-1-hydroxyethyl)butyl)tetrahydro-2-furancarboxamide] | 345 µL/min/mg | 165 µL/min/mg | 627 nM | 1500 nM | 781 nM
15 | C=CC[C@H](NC(C)=O)[C@H](O)CN[C@H]1CC2(CCC2)Oc2c1cc(CC(C)(C)C)nc2Nc1ccccc1 [compound 229, N-((1S)-1-((1R)-2-(((4′S)-6′-(2,2-dimethylpropyl)-8′-(phenylamino)-3′,4′-dihydrospiro[cyclobutane-1,2′-pyrano[2,3-c]pyridin]-4′-yl)amino)-1-hydroxyethyl)-3-buten-1-yl)acetamide] | 150 µL/min/mg | 139 µL/min/mg | 26 nM | 6100 nM | 987 nM
16 | C=CC[C@H](NC(=O)COC)[C@H](O)CN[C@H]1CC2(CCC2)Oc2c1cc(CC(C)(C)C)nc2Nc1ccccc1 [compound 230] | 168 µL/min/mg | 345 µL/min/mg | 40 nM | 3500 nM | 1380 nM
17 | C=CC[C@H](NC(=O)COC)[C@H](O)CN[C@H]1CC2(CCC2)Oc2c(-c3ccc4c(c3)OCO4)cc(CC(C)(C)C)cc21 [compound 231, N-((1S)-1-((1R)-2-(((4S)-8-(1,3-benzodioxol-5-yl)-6-(2,2-dimethylpropyl)-3,4-dihydrospiro[chromene-2,1′-cyclobutan]-4-yl)amino)-1-hydroxyethyl)-3-buten-1-yl)-2-methoxyacetamide] | 232 µL/min/mg | 284 µL/min/mg | 78 nM | 1000 nM | 369 nM
18 | C=CC[C@H](NC(=O)COC)[C@H](O)CN[C@H]1CC2(CCC2)Oc2c1cc(CC(C)(C)C)nc2Nc1ccncc1 [compound 232] | 174 µL/min/mg | 551 µL/min/mg | 127 nM | 700 nM | 21 nM
19 | C=CC[C@H](NC(=O)COC)[C@H](O)CN[C@H]1CC2(CCC2)Oc2c1cc(CC(C)(C)C)nc2Nc1ccc2c(c1)OCO2 [compound 233, N-((1S)-1-((1R)-2-(((4′S)-8′-(1,3-benzodioxol-5-ylamino)-6′-(2,2-dimethylpropyl)-3′,4′-dihydrospiro[cyclobutane-1,2′-pyrano[2,3-c]pyridin]-4′-yl)amino)-1-hydroxyethyl)-3-buten-1-yl)-2-methoxyacetamide] | 197 µL/min/mg | 151 µL/min/mg | 16 nM | 1300 nM | 388 nM
20 | C=CC[C@H](NC(=O)COC)[C@H](O)CN[C@H]1CC2(CCC2)Oc2ncc(C(F)(F)C(C)(C)C)cc21 [compound 234] | 173 µL/min/mg | 299 µL/min/mg | 2410 nM | 4100 nM | 5630 nM
21 | C=CC[C@H](NC(C)=O)[C@H](O)CN[C@H]1CC2(CCC2)Oc2c1cc(CC(C)(C)C)nc2Nc1nccs1 [compound 235] | 100 µL/min/mg | 244 µL/min/mg | 31 nM | 2700 nM | 121 nM
22 | C=CC[C@H](NC(=O)COC)[C@H](O)CN[C@H]1CC2(CCC2)Oc2c1cc(CC(C)(C)C)nc2Nc1nccs1 [compound 236] | 119 µL/min/mg | 614 µL/min/mg | 54 nM | 1200 nM | 366 nM
23 | C=CC[C@H](NC(=O)COC)[C@H](O)CN[C@H]1CC2(CCC2)Oc2c1cc(CC(C)(C)C)nc2-c1nccn1C [compound 237, N-((1S)-1-((1R)-2-(((4′S)-6′-(2,2-dimethylpropyl)-8′-(1-methyl-1H-imidazol-2-yl)-3′,4′-dihydrospiro[cyclobutane-1,2′-pyrano[2,3-c]pyridin]-4′-yl)amino)-1-hydroxyethyl)-3-buten-1-yl)-2-methoxyacetamide] | 64 µL/min/mg | 58 µL/min/mg | 1230 nM | 160 nM | 385 nM
24 | C=CC[C@H](NC(=O)COC)[C@H](O)CN[C@H]1CC2(CCC2)Oc2c1cc(CC(C)(C)C)nc2-c1cncn1C [compound 238, N-((1S)-1-((1R)-2-(((4′S)-6′-(2,2-dimethylpropyl)-8′-(1-methyl-1H-imidazol-5-yl)-3′,4′-dihydrospiro[cyclobutane-1,2′-pyrano[2,3-c]pyridin]-4′-yl)amino)-1-hydroxyethyl)-3-buten-1-yl)-2-methoxyacetamide] | 68 µL/min/mg | 58 µL/min/mg | 946 nM | 160 nM | 149 nM
